Values after ≈ are worked out from the molar mass of the structure shown. Peptide text beside a SMILES is read from it.
Legend:
Format in all cases: functional
Candida albicans [1] = assay: Antifungal activity against Candida albicans assessed as susceptible isolates after 48 hrs by broth microdilution
Candida tropicalis [2] = assay: Antifungal activity against Candida tropicalis assessed as susceptible isolates after 48 hrs by broth microdilution
Pichia kudriavzevii [3] = assay: Antifungal activity against Candida krusei assessed as resistant isolates after 48 hrs by broth microdilution
Pichia kudriavzevii [4] = assay: Antifungal activity against Candida krusei assessed as susceptible isolates after 48 hrs by broth microdilution
Nakaseomyces glabratus [5] = assay: Antifungal activity against Candida glabrata assessed as resistant isolates after 48 hrs by broth microdilution
Candida albicans [6] = assay: Antifungal activity against Candida albicans assessed as resistant isolates after 48 hrs by broth microdilution
Nakaseomyces glabratus [7] = assay: Antifungal activity against Candida glabrata after 48 hrs by broth microdilution
Candida tropicalis [8] = assay: Antifungal activity against Candida tropicalis assessed as resistant isolates after 48 hrs by broth microdilution
Curvularia = assay: Antifungal activity against Curvularia species after 48 hrs by broth microdilution
Candida parapsilosis [9] = assay: Antifungal activity against Candida parapsilosis assessed as susceptible isolates after 48 hrs by broth microdilution
Candida tropicalis [10] = assay: Antifungal activity against Candida tropicalis after 48 hrs by broth microdilution
Candida albicans [11] = assay: Antifungal activity against Candida albicans after 48 hrs by broth microdilution
Fusarium sp. = assay: Antifungal activity against Fusarium sp. after 48 hrs by broth microdilution
Pichia kudriavzevii [12] = assay: Antifungal activity against Candida krusei after 48 hrs by broth microdilution
Paecilomyces variotii = assay: Antifungal activity against Paecilomyces variotii after 48 hrs by broth microdilution
Penicillium sp. = assay: Antifungal activity against Penicillium sp. after 48 hrs by broth microdilution
Aspergillus sp. = assay: Antifungal activity against Aspergillus sp. after 48 hrs by broth microdilution
Talaromyces marneffei = assay: Antifungal activity against Penicillium marneffei after 48 hrs by broth microdilution
Nakaseomyces glabratus [13] = assay: Antifungal activity against Candida glabrata assessed as susceptible isolates after 48 hrs by broth microdilution
Candida parapsilosis [14] = assay: Antifungal activity against Candida parapsilosis after 48 hrs by broth microdilution; details: Lodderomyces parapsilosis
Candida parapsilosis [15] = assay: Antifungal activity against Candida parapsilosis assessed as resistant isolates after 48 hrs by broth microdilution

Row | Compound | MIC50 (Nakaseomyces glabratus [7]) [µg/mL] | MIC90 (Nakaseomyces glabratus [7]) [µg/mL] | MIC50 (Curvularia) [µg/mL] | MIC90 (Curvularia) [µg/mL] | MIC50 (Candida tropicalis [10]) [µg/mL] | MIC90 (Candida tropicalis [10]) [µg/mL] | MIC50 (Candida albicans [11]) [µg/mL] | MIC90 (Candida albicans [11]) [µg/mL] | MIC50 (Fusarium sp.) [µg/mL] | MIC90 (Fusarium sp.) [µg/mL] | MIC50 (Pichia kudriavzevii [12]) [µg/mL] | MIC90 (Pichia kudriavzevii [12]) [µg/mL] | MIC50 (Paecilomyces variotii) [µg/mL] | MIC90 (Paecilomyces variotii) [µg/mL] | MIC50 (Penicillium sp.) [µg/mL] | MIC90 (Penicillium sp.) [µg/mL] | MIC50 (Aspergillus sp.) [µg/mL] | MIC90 (Aspergillus sp.) [µg/mL] | MIC50 (Talaromyces marneffei) [µg/mL] | MIC90 (Talaromyces marneffei) [µg/mL] | other results
1 | OC(Cn1cncn1)(Cn1cncn1)c1ccc(F)cc1F [FLUCONAZOLE] | 4 (≈ 13.1 µM) | > 64 | > 64 | > 64 | 0.25 (≈ 0.816 µM) | > 64 | 1 (≈ 3.27 µM) | > 64 | > 64 | > 64 | 32 (≈ 104 µM) | 64 (≈ 209 µM) | > 64 | > 64 | > 64 | > 64 | > 64 | > 64 | > 64 | > 64 | Activity (Candida albicans [1]): 67.3%; Activity (Candida tropicalis [2]): 81.8%; Activity (Pichia kudriavzevii [3]): 100%; Activity (Pichia kudriavzevii [4]): 0%; Activity (Nakaseomyces glabratus [5]): 18.2%; Activity (Candida albicans [6]): 30.8%; Activity (Candida tropicalis [8]): 18.2%; Activity (Candida parapsilosis [9]): 81.8%; MIC (Pichia kudriavzevii [12]): 32 µg/mL (≈ 104 µM); Activity (Nakaseomyces glabratus [13]): 77.3%; MIC (Candida parapsilosis [14]): 0.5 µg/mL (≈ 1.63 µM); MIC50 (Candida parapsilosis [14]): 0.5 µg/mL (≈ 1.63 µM); MIC90 (Candida parapsilosis [14]): 16 µg/mL (≈ 52.2 µM); Activity (Candida parapsilosis [15]): 0%
2 | C[C@@H]1[C@H](O)[C@@H](C)/C=C/C=C/C=C/C=C/C=C/C=C/C=C/[C@H](O[C@@H]2O[C@H](C)[C@@H](O)[C@H](N)[C@@H]2O)C[C@@H]2O[C@](O)(C[C@@H](O)C[C@@H](O)[C@H](O)CC[C@@H](O)C[C@@H](O)CC(=O)O[C@H]1C)C[C@H](O)[C@H]2C(=O)O [AMPHOTERICIN B] | 1 (≈ 1.08 µM) | 1 (≈ 1.08 µM) | 0.25 (≈ 0.271 µM) | 0.5 (≈ 0.541 µM) | 1 (≈ 1.08 µM) | 1 (≈ 1.08 µM) | 1 (≈ 1.08 µM) | 1 (≈ 1.08 µM) | 0.25 (≈ 0.271 µM) | 0.5 (≈ 0.541 µM) | 1 (≈ 1.08 µM) | 2 (≈ 2.16 µM) | 0.25 (≈ 0.271 µM) | 0.5 (≈ 0.541 µM) | 0.25 (≈ 0.271 µM) | 0.5 (≈ 0.541 µM) | 0.5 (≈ 0.541 µM) | 1 (≈ 1.08 µM) | 0.25 (≈ 0.271 µM) | 0.5 (≈ 0.541 µM) | MIC (Candida parapsilosis [14]): 1 µg/mL (≈ 1.08 µM); MIC50 (Candida parapsilosis [14]): 1 µg/mL (≈ 1.08 µM); MIC90 (Candida parapsilosis [14]): 1 µg/mL (≈ 1.08 µM)
3 | CC[C@H](C)[C@H](N)C(=O)N[C@@H](CC(C)C)C(=O)N[C@@H](CCCNC(=N)N)C(=O)N[C@@H](Cc1c[nH]c2ccccc12)C(=O)N1CCC[C@H]1C(=O)N[C@@H](Cc1c[nH]c2ccccc12)C(=O)N[C@@H](Cc1c[nH]c2ccccc12)C(=O)N1CCC[C@H]1C(=O)N[C@@H](Cc1c[nH]c2ccccc12)C(=O)N[C@@H](CCCNC(=N)N)C(=O)N[C@@H](CCCNC(=N)N)C(=O)N[C@@H](CCCCN)C(N)=O.Cl.Cl.Cl.Cl.Cl [OMIGANAN PENTAHYDROCHLORIDE] (H-ILRWPWWPWRRK-NH2) | 256 | 256 | 64 | 256 | 32 | 32 | 64 | 128 | 64 | 256 | 64 | 128 | 64 | 256 | 64 | 256 | 128 | 1020 | 64 | 256 | MIC50 (Candida parapsilosis [14]): 128 µg/mL; MIC90 (Candida parapsilosis [14]): 256 µg/mL
4 | CCC(C)n1ncn(-c2ccc(N3CCN(c4ccc(OCC5COC(Cn6cncn6)(c6ccc(Cl)cc6Cl)O5)cc4)CC3)cc2)c1=O (stereo unspecified) [ITRACONAZOLE] | 0.12 (≈ 0.17 µM) | 0.5 (≈ 0.709 µM) | 0.06 (≈ 0.085 µM) | > 16 | 0.03 (≈ 0.0425 µM) | 0.12 (≈ 0.17 µM) | 0.12 (≈ 0.17 µM) | 16 (≈ 22.7 µM) | 0.06 (≈ 0.085 µM) | > 16 | 0.5 (≈ 0.709 µM) | 0.5 (≈ 0.709 µM) | 0.06 (≈ 0.085 µM) | > 16 | 0.06 (≈ 0.085 µM) | > 16 | 0.03 (≈ 0.0425 µM) | 0.06 (≈ 0.085 µM) | 0.06 (≈ 0.085 µM) | > 16 | Activity (Candida albicans [1]): 50%; Activity (Candida tropicalis [2]): 100%; Activity (Pichia kudriavzevii [3]): 0%; Activity (Pichia kudriavzevii [4]): 10%; Activity (Nakaseomyces glabratus [5]): 4.6%; Activity (Candida albicans [6]): 48.1%; Activity (Candida tropicalis [8]): 0%; Activity (Candida parapsilosis [9]): 63.6%; Activity (Nakaseomyces glabratus [13]): 72.7%; MIC50 (Candida parapsilosis [14]): 0.06 µg/mL (≈ 0.085 µM); MIC90 (Candida parapsilosis [14]): 0.25 µg/mL (≈ 0.354 µM); Activity (Candida parapsilosis [15]): 0%

From ChEMBL document CHEMBL1255262, “Antimicrobial activity of omiganan pentahydrochloride against contemporary fungal pathogens responsible for catheter-associated infections” (2008)
